Reference: patent US20260327193A1, “INHIBITORS OF PLASMA KALLIKREIN” (Rezolute, Inc., priority 2022, published 2026)

Experiments:
[1] = Caco-2 permeability assay; type: in vitro ADME; conditions: human, 10 μM test compound, pH 7.4, 37° C., 120 minutes, direction of the value not given, read-out: Caco-2 Perm
Protocol: Permeability Assay. A permeability study was conducted using Caco-2 cells (ECACC Cat. no. 09042001) seeded on cell inserts plate (Millicell, Cat #PSHT010R^5) at a density of 80,000 cells per well, and the cells were maintained for 18-21 days in culture medium (1×DMEM with 10% FBS, 0.1 mg/mL Penicillin/Streptomycin). The culture medium was changed every alternate day. Prior to the experiments, the integrity of the cellular monolayer was evaluated by measuring the TEER value using a volt ohm meter and STX100C96 electrode. Only monolayers with TEER values greater than 800 ohm·cm^2 in buffer after the first wash were used.
An assay buffer (HBSS with Ca+2 and Mg+2 buffered with 10 mM HEPES and 25 mM D-Glucose, pH-7.4) was used on apical side as well as on basolateral side.
An intermediate stock solution of a test compound was prepared in DMSO at a concentration of 1 mM in DMSO. This stock solution was spiked in the assay buffer to achieve a target test compound concentration of 10 μM. The organic content of final drug preparation was 1.0% v/v. The bidirectional permeability experiment was done in singlet and the sample analysis was done in duplicate.
The cultured cell monolayer was washed twice with assay buffer (0.4 mL and 0.8 mL was added to the apical and basolateral sides, respectively, of the culture plate), and then buffers from both compartments were discarded.
For the apical to basal (AP>BL) experiment, aliquots of 0.4 mL donor solution (assay buffer, pH 7.4 containing test compound) and 0.8 mL of receiver solutions (assay buffer, pH 7.4, only) were added to the apical and basolateral compartments, respectively. For the basal to apical (BL>AP) experiment, aliquots of 0.8 mL donor solution (assay buffer pH-7.4 containing test compound) and 0.4 mL of receiver solutions (assay buffer, pH-7.4) were added to the basolateral and apical compartments, respectively. The plate was then kept in an incubator at 37° C. for 120 minutes.
Control experiments with Propranolol (High Permeability), Atenolol (Low Permeability), Digoxin (High Efflux-Pgp substrate), and Digoxin+Verapamil (Pgp Inhibitor) in both directions (AP>BL and BL>AP) were performed in separate wells on the same experiment day.
After the completion of the transport experiment, the integrity of the cell monolayer was evaluated by measuring the Lucifer Yellow (LY) rejection. To do this, 400 μL of 10 μM LY was added to each well of the filter plate and incubated for 1 hour at 37° C. Subsequently, the samples were collected from the basolateral compartments, and the LY fluorescence was measured using an excitation wavelength of 485 nm and an emission wavelength of 530 nm. The percent LY rejection across the cell monolayer was calculated by measuring fluorescence in the receiver plate (basolateral compartment) compared to theoretical equilibrium standard.
The study samples (collected from apical and basolateral compartments after 120 min incubation) were analyzed by LCMS/MS, following which the Papp of the compound(s) was calculated in both apical to basal and basal to apical directions. Papp=([DBL]×VBL)/(A×t×[DAP]) where: [DBL]=final drug concentration on the basolateral side, VBL=volume of the basolateral compartment, A=surface area of the cell culture, t=total incubation time, and [DAP]=initial drug concentration on the apical side.

Plasma Kallikrein [2] = biological target: T1, Plasma Kallikrein (Homo sapiens, UniProt P03952); experiment: Plasma kallikrein activity in pooled human plasma; type: biochemical; parameters: Plasma Kallikrein activity was also measured in pooled human plasma; from tissue; host or cells: pooled human plasma; conditions: Z-FR-AMC substrate, activated with 10% Actin FS solution, 10 minutes, read-out: Pooled Human Plasma PKal IC50
Protocol: (§1) Plasma kallikrein protease inhibition assay. Two methods for determining the IC50 of a test compound against Plasma Kallikrein are provided.
Second, Plasma Kallikrein activity was also measured in pooled human plasma. First, a 10% Actin FS solution was prepared in assay buffer. Each test compound was dissolved in DMSO and delivered to the reaction mixture along with Z-FR-AMC substrate and pooled human plasma. The multi-well reaction plate was incubated for five minutes at room temperature. To initiate the reaction, the 10% Actin FS solution was added to each well, and kinetic measurements were taken at Ex/Em at 355/460 nm. The fluorescence signal was recorded every 30 seconds for a total of 10 minutes.

Plasma Kallikrein [3] = biological target: T1, Plasma Kallikrein; experiment: Plasma kallikrein protease inhibition assay, purified enzyme; type: biochemical; parameters: NS0-derived Gly20-Ala638, with a C-terminal 60-His tag; 60-His (so in the source) (C); purchased R&D Systems 2497-SE; host or cells: Mouse myeloma cell line, NS0; conditions: 10 μM Z-FR-AMC substrate, 20-minute pre-incubation, pH 8.0/8.5, room temperature, read-out: Purified PKal IC50
Protocol: as §1
In the first method was used a reaction buffer composed of 25 mM Tris-HCl (pH 8.0), 100 mM NaCl (pH 8.5), 0.01% Brij35, and 1% DMSO (final). The enzyme used was Plasma Kallikrein (R&D Systems Cat #2497-SE; Recombinant Human Plasma Kallikrein, expressed in Mouse myeloma cell line, NS0-derived Gly20-Ala638, with a C-terminal 60-His tag. MW=70 kDa).
The enzyme was activated by dilution to 200 μg/mL in activation buffer (100 mM Tris, 10 mM CaCl2, 150 mM NaCl, pH 7.5 (TCN), and then combined with an equal volume of 20 μg/mL thermolysin to form a reaction buffer. Each test compound was then dissolved in DMSO and delivered into the reaction buffer. The reaction was initiated by delivering a substrate solution containing 10 μM Z-FR-AMC (Enzo Cat #P-139; AMC: 7-Amino-4-methylcoumarin) into the reaction well after a 20-minute pre-incubation period.
Measurement was conducted with En Vision (PE) with excitation and emission wavelengths of 355 nm and 460 nm, respectively. […]. The enzyme activities were monitored every 5 minutes as a time-course measurement of the increase in signal from fluorescently labeled peptide substrate for 120 minutes at room temperature.
Data was analyzed by taking slope*(signal/time) of the linear portion of measurements. Slope was calculated using Excel, and curve fits were performed using Prism software.

T1 sequence (P03952 391-638 limits assumed): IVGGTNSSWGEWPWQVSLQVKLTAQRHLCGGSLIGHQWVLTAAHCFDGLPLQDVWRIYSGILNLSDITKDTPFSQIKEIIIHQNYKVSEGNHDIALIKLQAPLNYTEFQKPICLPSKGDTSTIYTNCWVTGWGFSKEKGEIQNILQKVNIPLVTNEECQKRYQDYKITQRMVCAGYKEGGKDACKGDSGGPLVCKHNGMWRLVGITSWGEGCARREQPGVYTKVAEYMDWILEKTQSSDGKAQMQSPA
T1 sequence (P03952 20-390 partner limits assumed): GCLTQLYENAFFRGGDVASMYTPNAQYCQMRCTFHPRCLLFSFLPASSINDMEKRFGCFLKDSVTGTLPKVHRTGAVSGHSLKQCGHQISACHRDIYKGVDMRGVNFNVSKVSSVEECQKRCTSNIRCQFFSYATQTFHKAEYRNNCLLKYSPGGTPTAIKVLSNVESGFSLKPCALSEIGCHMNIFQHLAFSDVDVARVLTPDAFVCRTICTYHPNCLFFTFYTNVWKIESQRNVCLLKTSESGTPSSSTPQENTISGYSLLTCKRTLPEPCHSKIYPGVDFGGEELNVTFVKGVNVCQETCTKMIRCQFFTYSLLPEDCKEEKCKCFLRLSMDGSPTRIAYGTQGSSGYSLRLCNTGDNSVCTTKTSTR

Row | Papp at 2 h, 10 µM [1] [×10⁻⁶ cm/s] | IC50 (Plasma Kallikrein [2]) [nM] | IC50 (Plasma Kallikrein [3]) [nM] | SMILES
1 | < 2 | < 100 | < 1 | CNC(=O)Cc1ccc(Cn2cc(C(=O)NCc3ccc(C(=N)N)cc3)cn2)cc1 [Example 19, N-(4-carbamimidoylbenzyl)-1-(4-(2-(methylamino)-2-oxoethyl)benzyl)-1H-pyrazole-4-carboxamide]
2 | < 2 | < 100 | < 1 | CC(C)(C#N)c1ccc(Cn2cc(C(=O)NCc3ccc(C(=N)N)cc3)cn2)cc1 [Example 7, N-(4-carbamimidoylbenzyl)-1-(4-(2-cyanopropan-2-yl)benzyl)-1H-pyrazole-4-carboxamide]

Continued, compound first:

Row | SMILES | Papp at 2 h, 10 µM [1] [×10⁻⁶ cm/s] | IC50 (Plasma Kallikrein [2]) [nM] | IC50 (Plasma Kallikrein [3]) [nM]
3 | N#CCCc1ccc(Cn2cc(C(=O)NCc3ccc(C(=N)N)cc3)cn2)cc1 [Example 3, N-(4-carbamimidoylbenzyl)-1-(4-(2-cyanoethyl)benzyl)-1H-pyrazole-4-carboxamide] | < 2 | < 100 | < 1
4 | CC(C)(C#N)c1ccc(Cn2cc(C(=O)NCc3ccc(C(=N)N)cc3F)cn2)cc1 [Example 45, N-(4-carbamimidoyl-2-fluorobenzyl)-1-(4-(2-cyanopropan-2-yl)benzyl)-1H-pyrazole-4-carboxamide] | 2 to 10 | < 100 | < 1
5 | N#CCc1ccc(Cn2cc(C(=O)NCc3ccc(C(=N)N)cc3)cn2)cc1 [Example 1, N-(4-carbamimidoylbenzyl)-1-(4-(cyanomethyl)benzyl)-1H-pyrazole-4-carboxamide] | < 2 | < 100 | < 1
